Marks after values point to notes of the source that are not given here.
What was measured:
[1] = tested on: D-Galn induced acute liver injury; assay: D-Galn induced acute liver injury mouse model; format: in vivo, ICR male mice
Procedure: 1. Comparison of therapeutic effects of ethyl 11-deoxy-18α-glycyrrhetinate and compound glycyrrhizin injection on ICR male mouse models of the D-Galn induced acute liver injury
Methods: 60 ICR male mice were randomly divided into 6 groups of 10 mice in each group: the model group, compound glycyrrhizin injection group (60 mg/kg), compound glycyrrhizin gastric infusion group (240 mg /kg), high dose of ethyl 11-deoxy-18α-glycyrrhetinate group (240 mg/kg), middle dose of ethyl 11-deoxy-18α-glycyrrhetinate group (120 mg/kg), low dose of ethyl 11-deoxy-18α-glycyrrhetinate group (60 mg/kg). […] The mice in model group were administered equal amount of 0.5% CMC-Na by gastric infusion.

[2] = tested on: TAA induced acute liver injury; assay: TAA induced acute liver injury mouse model; format: in vivo, ICR male mice; set-up: Average grade of hepatocyte necrosis: scale not given here; conditions: for Grade of hepatocyte necrosis 0 (number of mice) / Grade of hepatocyte necrosis 1 (number of mice) / Grade of hepatocyte necrosis 2 (number of mice) / Grade of hepatocyte necrosis 3 (number of mice) / Grade of hepatocyte necrosis 4 (number of mice): N=10
Procedure: 50 ICR male mice were randomly divided into 5 groups of 10 mice in each group: the model group, diammonium glycyrrhizinate group (240 mg/kg), high dose of ethyl 11-deoxy-18α-glycyrrhetinate group (240 mg/kg), middle dose of ethyl 11-deoxy-18α-glycyrrhetinate group (120 mg/kg), and low dose of ethyl 11-deoxy-18α-glycyrrhetinate group (60 mg/kg). The mice in model group were administered equal amount of 0.5% CMC-Na by IG.

[3] = tested on: carrageenan-induced rat paw edema; assay: Carrageenan-induced rat paw swelling; format: in vivo, male SD rats
Procedure: Rat paw edema was induced by injecting carrageenan, and we observed the swelling to evaluate the anti-inflammatory effect. Wherein:
• Animals: male SD rats, 150-180 g; • Inflammatory Agent: carrageenan; • Test Medicine: ethyl 11-deoxy-18α-glycyrrhetinate was dissolved in 1% CMC-Na to get the desired concentration; • Positive Control Medicine: indomethacin was dissolved in 1% CMC-Na to get the desired concentration;
50 rats were randomly divided into 5 groups of 10 rats in each group: the model group, positive control group (administering indomethacin 10 mg/kg), various doses of the test medicine groups (30, 60, 120 mg/kg). The animals in each group were administered continuously for 3 days. Before the last administration, the volumes of the left hind feet of the rats were measured by micropipette method. Then the animals were administered the test medicines or CMC-Na by gastric infusion. 1 hour later, freshly prepared carrageenan was injected subcutaneously into left hind feet of the rats according to the dosage of 0.05 ml/paw by using a 0.25 ml syringe and NO. 4 needle. The volume of left hind feet of the rats was measured by the method mentioned above at time points of 1, 3, 4, 5 and 7 hours after administration, each point 2 times, and the average values were calculated. The difference of these values between before and after inflammation was called swelling degree.
Data was presented as x±s. T test of the average of two samples was used to compare the experimental data of each group. P<0.05 or P<0.01 was regarded to be statistically significant.

[4] = tested on: BCG + LPS induced liver injury; assay: BCG+LPS induced liver injury in mice; format: in vivo, Kunming mice; conditions: for ALT / AST: 7 days
[5] = tested on: acetaminophen induced liver injury; assay: Acetaminophen induced liver injury in mice; format: in vivo; conditions: for ALT / AST: 10 days
Procedure: Ethyl 11-deoxy-18α-glycyrrhetinate: provided by traditional Chinese medicine laboratory, R&D center of Jiangsu Chia Tai Tianqing Pharmaceutical Co., Ltd. Bifendate pills: produced by Beijing Union Pharmaceutical factory. Daily dosage of human is 45 mg, used as the positive control medicine. Acetaminophen: produced by Jinzhou biochemical pharmaceutical factory. All medicines were prepared to desired concentrations with physiological saline according to the requirement of experiment. AST, ALT Kit: product of Nanjing Jiancheng bioengineering research institute.
60 mice were randomly divided into 6 groups: the normal control group, Bifendate group (positive medicine group), model control group, various doses of ethyl 11-deoxy-18α-glycyrrhetinate groups (240, 120, 60 mg/kg). After the animals were adaptively fed for 3 days, animals in each group were administered the medicines by gastric infusion for 10 days (one time/day). Animals in the normal control group and model group were administered 0.2 ml/mouse of physiological saline. 6 hours after the last administration, animals in each group, except the animals in normal control group, were intraperitoneally injected 400 mg kg-1 acetaminophen. After 12 hours, blood was taken by orbital bleeding. Activities of alanine aminotransferase (ALT), aspartate aminotransferase (AST) were measured. And T test of groups was performed, see table 7;

[6] = Table 1 experiment, 60 mg/kg IG, daily for 6 days
[7] = Table 1 experiment, 120 mg/kg IG, daily for 6 days
[8] = Table 1 experiment, 240 mg/kg IG, daily for 6 days
[9] = Table 2 experiment, 60 mg/kg IG, 7 days
[10] = Table 2 experiment, 120 mg/kg IG, 7 days
[11] = Table 2 experiment, 240 mg/kg IG, 7 days

With CCOC(=O)C1(C)CCC2(C)CCC3(C)C(=CCC4C5(C)CCC(O)C(C)(C)C5CCC43C)C2C1 (stereo not drawn) [Ethyl 11-deoxy-18α-glycyrrhetinate, ethyl 11-deoxy-18α-glycyrrhetinate] the ALT [1, 6] was 833 ± 564 U/ml, the “ALT Inhibition %” value [1, 6] was 60% and the AST [1, 6] was 777 ± 533 U/ml. For the same compound, the “AST Inhibition %” value [1, 6] was 60%, the ALT [1, 7] was 474 ± 345 U/ml and the “ALT Inhibition %” value [1, 7] was 77%. The AST [1, 7] was 414 ± 340 U/ml, the “AST Inhibition %” value [1, 7] was 79% and the ALT [1, 8] was 311 ± 256 U/ml. For the same compound, the “ALT Inhibition %” value [1, 8] was 85%, the AST [1, 8] was 317 ± 214 U/ml and the “AST Inhibition %” value [1, 8] was 84%. The ALT [1, 9] was 767 ± 739 U/ml, the “ALT Inhibition %” value [1, 9] was 61% and the AST [1, 9] was 353 ± 256 U/ml. For the same compound, the “AST Inhibition %” value [1, 9] was 69%, the ALT [1, 10] was 452 ± 432 U/ml and the “ALT Inhibition %” value [1, 10] was 77%. For the same compound, the AST [1, 10] was 292 ± 215 U/ml, the “AST Inhibition %” value [1, 10] was 74% and the ALT [1, 11] was 372 ± 440 U/ml. For the same compound, the “ALT Inhibition %” value [1, 11] was 81%, the AST [1, 11] was 266 ± 192 U/ml and the “AST Inhibition %” value [1, 11] was 77%. For the same compound, the ALT ([2]; 60 mg/kg IG) was 1177 ± 701 U/ml, the “ALT Inhibition %” value ([2]; 60 mg/kg IG) was 48% and the AST ([2]; 60 mg/kg IG) was 940 ± 582 U/ml. The “AST Inhibition %” value ([2]; 60 mg/kg IG) was 45%, the “Average grade of hepatocyte necrosis” value ([2]; 60 mg/kg IG) was 1.4* and the “Grade of hepatocyte necrosis 0 (number of mice)” value ([2]; 60 mg/kg IG) was 1. The “Grade of hepatocyte necrosis 1 (number of mice)” value ([2]; 60 mg/kg IG) was 4, the “Grade of hepatocyte necrosis 2 (number of mice)” value ([2]; 60 mg/kg IG) was 5 and the “Grade of hepatocyte necrosis 3 (number of mice)” value ([2]; 60 mg/kg IG) was 0. The “Grade of hepatocyte necrosis 4 (number of mice)” value ([2]; 60 mg/kg IG) was 0, the ALT ([2]; 120 mg/kg IG) was 1117 ± 707 U/ml and the “ALT Inhibition %” value ([2]; 120 mg/kg IG) was 51%. For the same compound, the AST ([2]; 120 mg/kg IG) was 823 ± 530 U/ml, the “AST Inhibition %” value ([2]; 120 mg/kg IG) was 52% and the “Average grade of hepatocyte necrosis” value ([2]; 120 mg/kg IG) was 1.3**. For the same compound, the “Grade of hepatocyte necrosis 0 (number of mice)” value ([2]; 120 mg/kg IG) was 1, the “Grade of hepatocyte necrosis 1 (number of mice)” value ([2]; 120 mg/kg IG) was 5 and the “Grade of hepatocyte necrosis 2 (number of mice)” value ([2]; 120 mg/kg IG) was 4. The “Grade of hepatocyte necrosis 3 (number of mice)” value ([2]; 120 mg/kg IG) was 0, the “Grade of hepatocyte necrosis 4 (number of mice)” value ([2]; 120 mg/kg IG) was 0 and the ALT ([2]; 240 mg/kg IG) was 992 ± 558 U/ml. For the same compound, the “ALT Inhibition %” value ([2]; 240 mg/kg IG) was 56%, the AST ([2]; 240 mg/kg IG) was 738 ± 258 U/ml and the “AST Inhibition %” value ([2]; 240 mg/kg IG) was 57%. For the same compound, the “Average grade of hepatocyte necrosis” value ([2]; 240 mg/kg IG) was 1.2**, the “Grade of hepatocyte necrosis 0 (number of mice)” value ([2]; 240 mg/kg IG) was 1 and the “Grade of hepatocyte necrosis 1 (number of mice)” value ([2]; 240 mg/kg IG) was 6. For the same compound, the “Grade of hepatocyte necrosis 2 (number of mice)” value ([2]; 240 mg/kg IG) was 3, the “Grade of hepatocyte necrosis 3 (number of mice)” value ([2]; 240 mg/kg IG) was 0 and the “Grade of hepatocyte necrosis 4 (number of mice)” value ([2]; 240 mg/kg IG) was 0. The “Swelling degree of the feet after inflammation” value (shortened to “Swelling degree of the feet”) ([3]; 30 mg/kg gastric infusion, 1 h) was 0.20 ± 0.10 mL, the “Swelling degree of the feet” value ([3]; 30 mg/kg gastric infusion, 3 h) was 0.27 ± 0.10 mL and the “Swelling degree of the feet” value ([3]; 30 mg/kg gastric infusion, 4 h) was 0.33 ± 0.11 mL. For the same compound, the “Swelling degree of the feet” value ([3]; 30 mg/kg gastric infusion, 5 h) was 0.39 ± 0.11 mL, the “Swelling degree of the feet” value ([3]; 30 mg/kg gastric infusion, 7 h) was 0.27 ± 0.12 mL and the “Swelling degree of the feet” value ([3]; 60 mg/kg gastric infusion, 1 h) was 0.17 ± 0.08 mL. For the same compound, the “Swelling degree of the feet” value ([3]; 60 mg/kg gastric infusion, 3 h) was 0.29 ± 0.15 mL, the “Swelling degree of the feet” value ([3]; 60 mg/kg gastric infusion, 4 h) was 0.37 ± 0.11 mL and the “Swelling degree of the feet” value ([3]; 60 mg/kg gastric infusion, 5 h) was 0.37 ± 0.07 mL. For the same compound, the “Swelling degree of the feet” value ([3]; 60 mg/kg gastric infusion, 7 h) was 0.29 ± 0.09 mL, the “Swelling degree of the feet” value ([3]; 120 mg/kg gastric infusion, 1 h) was 0.20 ± 0.05 mL and the “Swelling degree of the feet” value ([3]; 120 mg/kg gastric infusion, 3 h) was 0.32 ± 0.11 mL. The “Swelling degree of the feet” value ([3]; 120 mg/kg gastric infusion, 4 h) was 0.34 ± 0.09 mL, the “Swelling degree of the feet” value ([3]; 120 mg/kg gastric infusion, 5 h) was 0.42 ± 0.12 mL and the “Swelling degree of the feet” value ([3]; 120 mg/kg gastric infusion, 7 h) was 0.28 ± 0.09 mL. The “Inhibition of carrageenan-induced swelling of the rat feet (in words)” value ([3]; 30, 60, 120 mg/kg) was “began to inhibit the swelling of the rat feet induced by carrageenan after 4 hours”, the ALT ([4]; 60 mg/kg gastric infusion) was 105.3 ± 18.61 U/L and the AST ([4]; 60 mg/kg gastric infusion) was 227.2 ± 59.7 U/L. It also gave an ALT ([4]; 120 mg/kg gastric infusion) of 108.7 ± 20.0 U/L, an AST ([4]; 120 mg/kg gastric infusion) of 190.1 ± 43.3 U/L and an ALT ([4]; 240 mg/kg gastric infusion) of 89.4 ± 13.2 U/L. For the same compound, the AST ([4]; 240 mg/kg gastric infusion) was 169.3 ± 38.4 U/L, the “Protection of liver and reduction of enzyme activity (in words)” value ([4]; mouse, in vivo) was “has good activity of protecting liver and reducing enzyme activity” and the ALT ([5]; 60 mg/kg gastric infusion) was 172.0 ± 39.8 U/L. For the same compound, the AST ([5]; 60 mg/kg gastric infusion) was 203.5 ± 55.4 U/L, the ALT ([5]; 120 mg/kg gastric infusion) was 133.3 ± 28.7 U/L and the AST ([5]; 120 mg/kg gastric infusion) was 158.1 ± 46.9 U/L. For the same compound, the ALT ([5]; 240 mg/kg gastric infusion) was 119.4 ± 15.2 U/L, the AST ([5]; 240 mg/kg gastric infusion) was 122.3 ± 28.0 U/L and the “Reduction of AST, ALT and protection against hepatocyte injury (in words)” value ([5]; mouse, in vivo) was “can reduce AST, ALT, and effectively protect against the acetaminophen induced hepatocyte injury”.
